Measured values reported in article PMC6263338, “Synthesis of Some Phenylpropanoid Glycosides (PPGs) and Their Acetylcholinesterase/Xanthine Oxidase Inhibitory Activities” (Molecules, 2011).
Entries after “also recorded” stand apart in the source; their conditions may differ. Where two headings read alike, the source gives them in different places.

Legend:
AChE (from drosophila) = biological target: T1, AChE (from drosophila) (Drosophila melanogaster, UniProt P07140); assay: In vitro AChE inhibitory activity (Acetylcholinesterase Detection Kit); assay type: biochemical; settings: for inhibition at 1500 µg/mL: read-out: AChE inhibitory activitiy % inhibition (1.5 mg/mL); for inhibitory activities toward cholinesterase (in words): summary of Table 1
T1 construct: purchased Jing Peng Bio-Pesticide Co., Ltd. Shandong, P. R. China
Method: (§1) In vitro inhibitory activity test of these glycosides against AChE and XOD was studied by using Acetylcholinesterase Detection Kit and Xanthine Oxidase Detection Kit.
Assay of the in vitro AChE/XOD inhibitory activity: The tests of in vitro inhibitory activity of these PPGs against AChE (from drosophila, Jing Peng Bio-Pesticide Co., Ltd. Shandong, P. R. China) and Xanthine Oxidase (from buttermilk, Sigma Co., Ltd. X4875) were carried out by using AChE (or XOD) Detection Kits (Jian Cheng Bioengineering Institute, Nan Jin, Jiangsu, P. R. China), following the manufacturer’s protocol. All the compounds were dissolved in 1% DMSO. […] The results were read on a microplate reader at the wavelength of 450 nm/530 nm. All the assays were performed in triplicate with three independent experiments. The IC50 values were calculated using XLfit software.

[1] = biological target: T2, Xanthine Oxidase (from buttermilk) (Bos taurus, UniProt P80457); assay: In vitro XOD inhibitory activity (Xanthine Oxidase Detection Kit); assay type: biochemical; settings: for XOD inhibitory activity % inhibition (1.5 mg/mL): compounds in 1% DMSO, mean ± SD, triplicate; for inhibition at 1500 µg/mL: read-out: XOD inhibitory activity % inhibition (1.5 mg/mL); for XOD inhibitory activity (in words): summary of Table 1
T2 construct: Xanthine Oxidase (from buttermilk, Sigma Co., Ltd. X4875); purchased Sigma Co., Ltd. X4875; host or cells: buttermilk
Method: as §1
Assay of the in vitro AChE/XOD inhibitory activity: The tests of in vitro inhibitory activity of these PPGs against AChE (from drosophila, Jing Peng Bio-Pesticide Co., Ltd. Shandong, P. R. China) and Xanthine Oxidase (from buttermilk, Sigma Co., Ltd. X4875) were carried out by using AChE (or XOD) Detection Kits (Jian Cheng Bioengineering Institute, Nan Jin, Jiangsu, P. R. China), following the manufacturer’s protocol. All the compounds were dissolved in 1% DMSO. […] If an inhibition of more than 30% was observed, the compound was classified as active. The active compounds were consequently tested at seven concentrations. The results were read on a microplate reader at the wavelength of 450 nm/530 nm. All the assays were performed in triplicate with three independent experiments. The IC50 values were calculated using XLfit software.

[2] = 1.5 mg/mL, compounds in 1% DMSO, mean ± SD, triplicate
[3] = seven concentrations, mean ± SD of triplicate independent experiments, – = not active, read-out: AChE inhibitory activitiy IC50
[4] = seven concentrations, mean ± SD of triplicate independent experiments, – = not active
[5] = read-out: AChE inhibitory activitiy IC50, seven concentrations, mean ± SD of triplicate independent experiments, – = not active
[6] = read-out: XOD inhibitory activity IC50, seven concentrations, mean ± SD of triplicate independent experiments, – = not active

Molecule | AChE inhibitory activitiy IC50 (μM) (AChE (from drosophila); [4]) | XOD inhibitory activity IC50 (μM) [1, 4] | inhibition at 1500 µg/mL (AChE (from drosophila); [2]) [%] | inhibition at 1500 µg/mL [1] [%] | IC50 (AChE (from drosophila); [5]) [µM] | IC50 [1, 6] [µM] | also measured
3-Bromo-4-ethoxy-5-methoxycinnamylcinnamyl β-D-glucopyranoside [Compound 10n] |  |  |  |  |  |  | AChE inhibitory activitiy % inhibition (1.5 mg/mL) (AChE (from drosophila); [2]): 36 ± 3.55%; IC50 (AChE (from drosophila); [3]): 87.3 ± 2.1 µM; XOD inhibitory activity % inhibition (1.5 mg/mL) [1]: 28 ± 1.74%; IC50 ([1]; seven concentrations, mean ± SD of triplicate independent experiments, – = not active, read-out: XOD inhibitory activity IC50): 97.3 ± 0.8 µM
4-Trifluoromethycinnamyl β-D-glucopyranoside [Compound 10f] | – (not active (less than 30% inhibition at 1.5 mg/mL)) | – (not active (less than 30% inhibition at 1.5 mg/mL)) |  |  |  |  | AChE inhibitory activitiy % inhibition (1.5 mg/mL) (AChE (from drosophila); [2]): 22 ± 2.44%; XOD inhibitory activity % inhibition (1.5 mg/mL) [1]: 5 ± 0.22%
COc1ccc(C=CCO[C@@H]2O[C@H](CO)[C@@H](O)[C@H](O)[C@H]2O)cc1 [Compound 10a, 4-Methoxycinnamyl β-D-glucopyranoside] | – (not active (less than 30% inhibition at 1.5 mg/mL)) | – (not active (less than 30% inhibition at 1.5 mg/mL)) | 15 ± 3.27 | 10 ± 2.22 |  |  | 
COc1ccccc1C=CCO[C@@H]1O[C@H](CO)[C@@H](O)[C@H](O)[C@H]1O [Compound 10b, 2-Methoxycinnamyl β-D-glucopyranoside] |  | – (not active (less than 30% inhibition at 1.5 mg/mL)) | 62 ± 4.53 | 12 ± 3.12 |  |  | IC50 (AChE (from drosophila)): 15.5 ± 2.1 µM; inhibitory activities toward cholinesterase (in words) (AChE (from drosophila)): moderate inhibitory activities; also recorded: more potent than the corresponding unsubstituted compound 10m
COc1cc(C=CCO[C@@H]2O[C@H](CO)[C@@H](O)[C@H](O)[C@H]2O)cc(OC)c1 [Compound 10c, 3,5-Dimethoxycinnamyl β-D-glucopyranoside] | – (not active (less than 30% inhibition at 1.5 mg/mL)) | – (not active (less than 30% inhibition at 1.5 mg/mL)) | 23 ± 0.85 | 21 ± 1.21 |  |  | 
COc1ccc(C=CCO[C@@H]2O[C@H](CO)[C@@H](O)[C@H](O)[C@H]2O)cc1OC [Compound 10d, 3,4-Dimethoxycinnamyl β-D-glucopyranoside] |  |  | 43 ± 1.35 | 35 ± 3.22 |  |  | IC50 (AChE (from drosophila); [3]): 43.5 ± 0.6 µM; IC50 [1]: 73.5 ± 1.5 µM
COc1cccc(C=CCO[C@@H]2O[C@H](CO)[C@@H](O)[C@H](O)[C@H]2O)c1OC [Compound 10e, 2,3-Dimethoxycinnamyl β-D-glucopyranoside] |  | – (not active (less than 30% inhibition at 1.5 mg/mL)) | 34 ± 4.36 | 22 ± 0.85 | 71.2 ± 2.8 |  | 
OC[C@H]1O[C@@H](OCC=Cc2ccc3c(c2)OCO3)[C@H](O)[C@@H](O)[C@@H]1O [Compound 10g, 3,4-Methylenedioxycinnamyl β-D-glucopyranoside] | – (not active (less than 30% inhibition at 1.5 mg/mL)) | – (not active (less than 30% inhibition at 1.5 mg/mL)) | 15 ± 3.55 | 13 ± 1.43 |  |  | 
COc1cc(C=CCO[C@@H]2O[C@H](CO)[C@@H](O)[C@H](O)[C@H]2O)cc(OC)c1OC [Compound 10h, 3,4,5-Trimethoxycinnamyl β-D-glucopyranoside] | – (not active (less than 30% inhibition at 1.5 mg/mL)) |  | 17 ± 4.33 | 33 ± 2.16 |  |  | IC50 [1]: 69.3 ± 1.3 µM
OC[C@H]1O[C@@H](OCC=Cc2ccccc2F)[C@H](O)[C@@H](O)[C@@H]1O [Compound 10i, 2-Fluorocinnamyl β-D-glucopyranoside] | – (not active (less than 30% inhibition at 1.5 mg/mL)) | – (not active (less than 30% inhibition at 1.5 mg/mL)) | 18 ± 2.11 | 24 ± 1.32 |  |  | 
OC[C@H]1O[C@@H](OCC=Cc2ccc(Cl)cc2)[C@H](O)[C@@H](O)[C@@H]1O [Compound 10j, 4-Chlorocinnamyl β-D-glucopyranoside] |  |  | 42 ± 3.23 | 50 ± 2.35 | 38.3 ± 1.4 | 24.3 ± 1.4 | XOD inhibitory activity (in words) [1]: have XOD inhibitory activity
OC[C@H]1O[C@@H](OCC=Cc2ccc(F)c(F)c2)[C@H](O)[C@@H](O)[C@@H]1O [Compound 10k, 3,4-Difluorocinnamyl β-D-glucopyranoside] |  |  | 43 ± 2.31 | 37 ± 2.78 |  | 55.4 ± 1.3 | IC50 (AChE (from drosophila); [3]): 35.5 ± 1.1 µM
OC[C@H]1O[C@@H](OCC=Cc2ccc(Br)cc2)[C@H](O)[C@@H](O)[C@@H]1O [Compound 10l, 4-Bromocinnamyl β-D-glucopyranoside] |  |  | 57 ± 1.22 | 55 ± 3.67 | 22.4 ± 0.6 | 19.6 ± 1.5 | inhibitory activities toward cholinesterase (in words) (AChE (from drosophila)): moderate inhibitory activities; XOD inhibitory activity (in words) [1]: have XOD inhibitory activity
OC[C@H]1O[C@@H](OC/C=C/c2ccccc2)[C@H](O)[C@@H](O)[C@@H]1O [Compound 10m, Cinnamyl β-D-glucopyranoside] | – (not active (less than 30% inhibition at 1.5 mg/mL)) |  | 16 ± 0.44 | 38 ± 2.83 |  | 93.2 ± 1.4 | 
OC[C@H]1O[C@@H](OCC=Cc2ccc(O)cc2)[C@H](O)[C@@H](O)[C@@H]1O [Compound 16a, 4-Hydroxycinnamyl β-D-glucopyranoside] |  |  | 34 ± 2.67 | 32 ± 1.63 |  |  | IC50 (AChE (from drosophila); [3]): 75.2 ± 1.2 µM; IC50 [1]: 79.3 ± 0.7 µM
OC[C@H]1O[C@@H](OCC=Cc2cccc(O)c2)[C@H](O)[C@@H](O)[C@@H]1O [Compound 16b, 3-Hydroxycinnamyl β-D-glucopyranoside] |  |  | 75 ± 2.12 | 41 ± 2.22 | 7.62 ± 1.1 | 29.6 ± 1.2 | XOD inhibitory activity (in words) [1]: have XOD inhibitory activity
COc1cc(C=CCO[C@@H]2O[C@H](CO)[C@@H](O)[C@H](O)[C@H]2O)ccc1O [Compound 16c, 4-Hydroxy-3-methoxycinnamyl β-D-glucopyranoside] |  | – (not active (less than 30% inhibition at 1.5 mg/mL)) |  | 23 ± 0.93 | 25.7 ± 0.7 |  | inhibition at 1500 µg/mL (AChE (from drosophila)): 54 ± 2.34%
COc1ccc(C=CCO[C@@H]2O[C@H](CO)[C@@H](O)[C@H](O)[C@H]2O)cc1O [Compound 16d, 3-Hydroxy-4-methoxycinnamyl β-D-glucopyranoside] |  |  | 66 ± 3.45 | 56 ± 2.34 | 10.3 ± 2 | 16.5 ± 1.1 | XOD inhibitory activity (in words) [1]: have XOD inhibitory activity
O[C@@H]1[C@@H](O)[C@H](OC/C=C/c2ccccc2)O[C@H](CO[C@@H]2OC[C@H](O)[C@H](O)[C@H]2O)[C@H]1O [Compound 20, Rosavin] |  |  | 85 ± 0.21 | 73 ± 0.02 |  |  | IC50 (AChE (from drosophila); [3]): 1.72 ± 0.1 µM; IC50 [1]: 5.55 µM
O[C@@H]1[C@@H](O)[C@H](OCC=Cc2ccccc2)O[C@H](CO[C@@H]2OC[C@@H](O)[C@H](O)[C@H]2O)[C@H]1O [Compound 21, Cinnamyl 6-O-(β-D-xylopyranosyl)-β-D-glucopyranoside] |  |  | 82 ± 0.11 | 74 ± 0.12 | 3.71 ± 0.1 | 4.56 ± 0.1 | 
